From patent US20150141435A1, “2-PYRIDONE ANTIMICROBIAL COMPOSITIONS” (Emergent BioSolutions, priority 2010, published 2015)
Converted amounts (≈) assume the structure as drawn. Like-named read-outs stand apart in the source and are kept apart here.

How the values were obtained:
[1] = system: S. aureus BAA-1720 (MRSA, FQ-R); test: MIC, CLSI broth microdilution (Table 1); assay type: cell-based; settings: Staphylococcus aureus; Gram positive; MHB, 37° C., 16-20 hours; read-out: MIC S. aureus BAA-1720 (MRSA, FQ-R)
E. faecium ATCC 19434 = test: MIC, CLSI broth microdilution (Table 1); assay type: cell-based; settings: Enterococcus faecium, ATCC19434; Gram positive; MHB, 37° C., 16-20 hours; read-out: MIC E. faecium ATCC 19434
[2] = system: Pseudomonas aeruginosa (12 strains); test: MIC range, broader panel incl. clinical isolates (Table 4); assay type: cell-based
[3] = system: S. maltophilia ATCC 17677; test: MIC, CLSI broth microdilution (Table 2); assay type: cell-based; settings: Stenotrophomonas maltophilia, ATCC17677; Gram negative; MHB, 37° C., 16-20 hours; read-out: MIC S. maltophilia ATCC 17677
K. pneumoniae ATCC 33495 = test: MIC, CLSI broth microdilution (Table 2); assay type: cell-based; settings: Klebsiella pneumoniae, ATCC33495; Gram negative; MHB, 37° C., 16-20 hours; read-out: MIC K. pneumoniae ATCC 33495
[4] = system: S. aureus ATCC 43300 (MRSA, FQ-S); test: MIC, CLSI broth microdilution (Table 1); assay type: cell-based; settings: Staphylococcus aureus; Gram positive; MHB, 37° C., 16-20 hours; read-out: MIC S. aureus ATCC 43300 (MRSA, FQ-S)
[5] = system: Staphylococcus aureus (16 strains); test: MIC range, broader panel incl. clinical isolates (Table 3); assay type: cell-based; settings: Staphylococcus aureus
S. aureus ATCC 25923 = test: MIC, CLSI broth microdilution (Table 1); assay type: cell-based; settings: Staphylococcus aureus, ATCC25923; Gram positive; MHB, 37° C., 16-20 hours; read-out: MIC S. aureus ATCC 25923
H. influenzae ATCC 49247 = test: MIC, CLSI broth microdilution (Table 2); assay type: cell-based; settings: Haemophilus influenzae, ATCC49247; Gram negative; MHB, 37° C., 16-20 hours; read-out: MIC H. influenzae ATCC 49247
[6] = system: Enterococcus faecium (3 strains); test: MIC range, broader panel incl. clinical isolates (Table 3); assay type: cell-based
E. faecalis ATCC 29212 = test: MIC, CLSI broth microdilution (Table 1); assay type: cell-based; settings: Enterococcus faecalis, ATCC29212; Gram positive; MHB, 37° C., 16-20 hours; read-out: MIC E. faecalis ATCC 29212
[7] = system: Streptococcus pneumonia (5 strains); test: MIC range, broader panel incl. clinical isolates (Table 3); assay type: cell-based; settings: Streptococcus pneumoniae
[8] = system: Burkholderia cepacia (5 strains); test: MIC range, broader panel incl. clinical isolates (Table 4); assay type: cell-based; settings: Burkholderia cepacia
A. baumannii ATCC 19606 = test: MIC, CLSI broth microdilution (Table 2); assay type: cell-based; settings: Acinetobacter baumannii, ATCC19606; Gram negative; MHB, 37° C., 16-20 hours; read-out: MIC A. baumannii B. ATCC 19606
[9] = system: Enterococcus faecalis (5 strains); test: MIC range, broader panel incl. clinical isolates (Table 3); assay type: cell-based
[10] = system: Group C Streptococcus (4 strains); test: as above; assay type: cell-based
[11] = system: Acinetobacter baumannii (12 strains); test: MIC range, broader panel incl. clinical isolates (Table 4); assay type: cell-based; settings: Median of 12 strains
[12] = system: Streptococcus pyogenes (4 strains); test: MIC range, broader panel incl. clinical isolates (Table 3); assay type: cell-based
S. pneumonia ATCC 49619 = test: MIC, CLSI broth microdilution (Table 1); assay type: cell-based; settings: Streptococcus pneumoniae, ATCC49619; Gram positive; MHB, 37° C., 16-20 hours; read-out: MIC S. pneumonia ATCC 49619
[13] = system: Haemophilus influenza (5 strains); test: MIC range, broader panel incl. clinical isolates (Table 4); assay type: cell-based, Haemophilus influenzae
[14] = system: Escherichia coli (6 strains); test: as above; assay type: cell-based
[15] = system: Klebsiella pneumonia (4 strains); test: as above; assay type: cell-based; settings: Klebsiella pneumoniae

C[C@H]1COc2c(N3CCN(C)CC3)c(F)cc3c(=O)c(C(=O)O)cn1c23 [Levofloxacin]
MIC [1]: > 8 µg/mL
MIC (E. faecium ATCC 19434): 8 µg/mL (≈ 22.1 µM)
MIC ([2]; High of 12 strains, read-out: MIC Range High, Pseudomonas aeruginosa (12 strains)): ≥ 16 µg/mL
MIC ([2]; Low of 12 strains, read-out: MIC Range Low, Pseudomonas aeruginosa (12 strains)): 1 µg/mL (≈ 2.77 µM)
MIC50 ([2]; Median of 12 strains): ≥ 16 µg/mL
MIC [3]: 0.25 µg/mL (≈ 0.692 µM)
MIC (K. pneumoniae ATCC 33495): 0.032 µg/mL (≈ 0.0886 µM)
MIC [4]: 0.125 µg/mL (≈ 0.346 µM)
MIC ([5]; High of 16 strains, read-out: MIC Range High, Staphylococcus aureus (16 strains)): ≥ 16 µg/mL
MIC ([5]; Low of 16 strains, read-out: MIC Range Low, Staphylococcus aureus (16 strains)): 0.12 µg/mL (≈ 0.332 µM)
MIC50 ([5]; Median of 16 strains): 0.25 µg/mL (≈ 0.692 µM)
MIC (S. aureus ATCC 25923): 0.25 µg/mL (≈ 0.692 µM)
MIC (H. influenzae ATCC 49247): 0.016 µg/mL (≈ 0.0443 µM)
MIC ([6]; High of 3 strains, read-out: MIC Range High, Enterococcus faecium (3 strains)): ≥ 16 µg/mL
MIC ([6]; Low of 3 strains, read-out: MIC Range Low, Enterococcus faecium (3 strains)): 2 µg/mL (≈ 5.53 µM)
MIC50 ([6]; Median of 3 strains): ≥ 16 µg/mL
MIC (E. faecalis ATCC 29212): 1 µg/mL (≈ 2.77 µM)
MIC ([7]; High of 5 strains, read-out: MIC Range High, Streptococcus pneumonia (5 strains)): 2 µg/mL (≈ 5.53 µM)
MIC ([7]; Low of 5 strains, read-out: MIC Range Low, Streptococcus pneumonia (5 strains)): 0.5 µg/mL (≈ 1.38 µM)
MIC50 ([7]; Median of 5 strains): 1 µg/mL (≈ 2.77 µM)
MIC ([8]; High of 5 strains, read-out: MIC Range High, Burkholderia cepacia (5 strains)): 2 µg/mL (≈ 5.53 µM)
MIC ([8]; Low of 5 strains, read-out: MIC Range Low, Burkholderia cepacia (5 strains)): 1 µg/mL (≈ 2.77 µM)
MIC50 ([8]; Median of 5 strains): 2 µg/mL (≈ 5.53 µM)
MIC (A. baumannii ATCC 19606): 0.25 µg/mL (≈ 0.692 µM)
MIC ([9]; High of 5 strains, read-out: MIC Range High, Enterococcus faecalis (5 strains)): ≥ 16 µg/mL
MIC ([9]; Low of 5 strains, read-out: MIC Range Low, Enterococcus faecalis (5 strains)): 1 µg/mL (≈ 2.77 µM)
MIC50 ([9]; Median of 5 strains): 2 µg/mL (≈ 5.53 µM)
MIC ([10]; High of 4 strains, read-out: MIC Range High, Group C Streptococcus (4 strains)): 1 µg/mL (≈ 2.77 µM)
MIC ([10]; Low of 4 strains, read-out: MIC Range Low, Group C Streptococcus (4 strains)): 0.5 µg/mL (≈ 1.38 µM)
MIC50 ([10]; Median of 4 strains): 0.75 µg/mL (≈ 2.08 µM)
MIC50 [11]: ≥ 16 µg/mL
MIC ([12]; High of 4 strains, read-out: MIC Range High, Streptococcus pyogenes (4 strains)): 2 µg/mL (≈ 5.53 µM)
MIC ([12]; Low of 4 strains, read-out: MIC Range Low, Streptococcus pyogenes (4 strains)): 0.5 µg/mL (≈ 1.38 µM)
MIC50 ([12]; Median of 4 strains): 0.75 µg/mL (≈ 2.08 µM)
MIC (S. pneumonia ATCC 49619): 0.5 µg/mL (≈ 1.38 µM)
MIC ([13]; High of 5 strains, read-out: MIC Range High, Haemophilus influenza (5 strains)): 0.015 µg/mL (≈ 0.0415 µM)
MIC ([13]; Low of 5 strains, read-out: MIC Range Low, Haemophilus influenza (5 strains)): 0.008 µg/mL (≈ 0.0221 µM)
MIC50 ([13]; Median of 5 strains): 0.015 µg/mL (≈ 0.0415 µM)
MIC ([14]; High of 6 strains, read-out: MIC Range High, Escherichia coli (6 strains)): ≥ 16 µg/mL
MIC ([14]; Low of 6 strains, read-out: MIC Range Low, Escherichia coli (6 strains)): 0.015 µg/mL (≈ 0.0415 µM)
MIC50 ([14]; Median of 6 strains): ≥ 16 µg/mL
MIC ([15]; High of 4 strains, read-out: MIC Range High, Klebsiella pneumonia (4 strains)): 2 µg/mL (≈ 5.53 µM)
MIC ([15]; Low of 4 strains, read-out: MIC Range Low, Klebsiella pneumonia (4 strains)): 0.03 µg/mL (≈ 0.083 µM)
MIC50 ([15]; Median of 4 strains): 2 µg/mL (≈ 5.53 µM)
